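The compound was tested at five concentrations on cells cultured in 96-well plates, with a 48-hour exposure period. The concentration for full growth arrest is given as TGI.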
Legend:
Test in all cases: NCI anticancer screen, dose series, 48 h
OVCAR-3 ovarian = test system: OVCAR-3 ovarian
IGROV1 ovarian = test system: IGROV1 ovarian
SK-MEL-28 melanoma = test system: SK-MEL-28 melanoma
SK-MEL-2 melanoma = test system: SK-MEL-2 melanoma
NCI-H23 lung = test system: NCI-H23 lung
SNB-75 CNS = test system: SNB-75 CNS
SK-MEL-5 melanoma = test system: SK-MEL-5 melanoma
OVCAR-4 ovarian = test system: OVCAR-4 ovarian
KM12 colon = test system: KM12 colon
COLO 205 colon = test system: COLO 205 colon
CCRF-CEM leukemia = test system: CCRF-CEM leukemia
T-47D breast = test system: T-47D breast
SF-295 CNS = test system: SF-295 CNS
SF-539 CNS = test system: SF-539 CNS
HCT-15 colon = test system: HCT-15 colon
K-562 leukemia = test system: K-562 leukemia
RPMI-8226 leukemia = test system: RPMI-8226 leukemia
SN12C renal = test system: SN12C renal
BT-549 breast = test system: BT-549 breast
786-0 renal = test system: 786-0 renal
PC-3 prostate = test system: PC-3 prostate
EKVX NSCLC = test system: EKVX NSCLC
ACHN renal = test system: ACHN renal
HCT-116 colon = test system: HCT-116 colon
RXF 393 renal = test system: RXF 393 renal
NCI/ADR-RES ovarian = test system: NCI/ADR-RES ovarian
HT29 colon = test system: HT29 colon
UO-31 renal = test system: UO-31 renal
NCI-H460 lung = test system: NCI-H460 lung
HL-60(TB) leukemia = test system: HL-60(TB) leukemia
MALME-3M melanoma = test system: MALME-3M melanoma
MCF7 breast = test system: MCF7 breast
SK-OV-3 ovarian = test system: SK-OV-3 ovarian
M14 melanoma = test system: M14 melanoma
U251 CNS = test system: U251 CNS
A549 NSCLC = test system: A549 NSCLC
HOP-62 NSCLC = test system: HOP-62 NSCLC
SNB-19 CNS = test system: SNB-19 CNS
DU-145 prostate = test system: DU-145 prostate
HS 578T breast = test system: HS 578T breast
CAKI-1 renal = test system: CAKI-1 renal
HCC-2998 colon = test system: HCC-2998 colon
TK-10 renal = test system: TK-10 renal
OVCAR-5 ovarian = test system: OVCAR-5 ovarian
LOX IMVI melanoma = test system: LOX IMVI melanoma
SW-620 colon = test system: SW-620 colon
UACC-257 melanoma = test system: UACC-257 melanoma
NCI-H522 lung = test system: NCI-H522 lung
OVCAR-8 ovarian = test system: OVCAR-8 ovarian
UACC-62 melanoma = test system: UACC-62 melanoma
NCI-H226 lung = test system: NCI-H226 lung
MDA-MB-435 = test system: MDA-MB-435
A498 renal = test system: A498 renal
SF-268 CNS = test system: SF-268 CNS
MDA-N = test system: MDA-N
MDA-MB-231 breast = test system: MDA-MB-231 breast
MOLT-4 leukemia = test system: MOLT-4 leukemia
HOP-92 NSCLC = test system: HOP-92 NSCLC

CCC1(CC)C(=O)N(C(=O)c2cc(OC)c(OC)c(OC)c2)N(C(=O)c2cc(OC)c(OC)c(OC)c2)C1=O
TGI (OVCAR-3 ovarian): > 50 µM | TGI (IGROV1 ovarian): > 50 µM | TGI (SK-MEL-28 melanoma): > 50 µM | TGI (SK-MEL-2 melanoma): > 50 µM | TGI (NCI-H23 lung): > 50 µM | TGI (SNB-75 CNS): > 50 µM | TGI (SK-MEL-5 melanoma): > 50 µM | TGI (OVCAR-4 ovarian): > 50 µM | TGI (KM12 colon): > 50 µM | TGI (COLO 205 colon): > 50 µM | TGI (CCRF-CEM leukemia): > 50 µM | TGI (T-47D breast): > 50 µM | TGI (SF-295 CNS): > 50 µM | TGI (SF-539 CNS): > 50 µM | TGI (HCT-15 colon): > 50 µM | TGI (K-562 leukemia): > 50 µM | TGI (RPMI-8226 leukemia): > 50 µM | TGI (SN12C renal): > 50 µM | TGI (BT-549 breast): > 50 µM | TGI (786-0 renal): > 50 µM | TGI (PC-3 prostate): > 50 µM | TGI (EKVX NSCLC): > 50 µM | TGI (ACHN renal): > 50 µM | TGI (HCT-116 colon): > 50 µM | TGI (RXF 393 renal): > 50 µM | TGI (NCI/ADR-RES ovarian): > 50 µM | TGI (HT29 colon): > 50 µM | TGI (UO-31 renal): > 50 µM | TGI (NCI-H460 lung): > 50 µM | TGI (HL-60(TB) leukemia): > 50 µM | TGI (MALME-3M melanoma): > 50 µM | TGI (MCF7 breast): > 50 µM | TGI (SK-OV-3 ovarian): > 50 µM | TGI (M14 melanoma): > 50 µM | TGI (U251 CNS): > 50 µM | TGI (A549 NSCLC): > 50 µM | TGI (HOP-62 NSCLC): > 50 µM | TGI (SNB-19 CNS): > 50 µM | TGI (DU-145 prostate): > 50 µM | TGI (HS 578T breast): > 50 µM | TGI (CAKI-1 renal): > 50 µM | TGI (HCC-2998 colon): > 50 µM | TGI (TK-10 renal): > 50 µM | TGI (OVCAR-5 ovarian): > 50 µM | TGI (LOX IMVI melanoma): > 50 µM | TGI (SW-620 colon): > 50 µM | TGI (UACC-257 melanoma): > 50 µM | TGI (NCI-H522 lung): > 50 µM | TGI (OVCAR-8 ovarian): > 50 µM | TGI (UACC-62 melanoma): > 50 µM | TGI (NCI-H226 lung): > 50 µM | TGI (MDA-MB-435): > 50 µM | TGI (A498 renal): > 50 µM | TGI (SF-268 CNS): > 50 µM | TGI (MDA-N): > 50 µM | TGI (MDA-MB-231 breast): > 50 µM

N#Cc1c(-c2ccc([N+](=O)[O-])cc2)c(C#N)c(=O)n(NS(=O)(=O)c2ccccc2)c1O
TGI (OVCAR-3 ovarian): > 100 µM | TGI (IGROV1 ovarian): > 100 µM | TGI (SK-MEL-28 melanoma): > 100 µM | TGI (SK-MEL-2 melanoma): > 100 µM | TGI (SK-MEL-5 melanoma): > 100 µM | TGI (OVCAR-4 ovarian): > 100 µM | TGI (COLO 205 colon): > 100 µM | TGI (CCRF-CEM leukemia): > 100 µM | TGI (SF-295 CNS): > 100 µM | TGI (MOLT-4 leukemia): > 100 µM | TGI (SF-539 CNS): > 100 µM | TGI (HCT-15 colon): > 100 µM | TGI (K-562 leukemia): > 100 µM | TGI (RPMI-8226 leukemia): > 100 µM | TGI (SN12C renal): > 100 µM | TGI (BT-549 breast): > 100 µM | TGI (786-0 renal): > 100 µM | TGI (PC-3 prostate): > 100 µM | TGI (EKVX NSCLC): > 100 µM | TGI (ACHN renal): > 100 µM | TGI (HCT-116 colon): > 100 µM | TGI (RXF 393 renal): > 100 µM | TGI (NCI/ADR-RES ovarian): > 100 µM | TGI (HT29 colon): > 100 µM | TGI (NCI-H460 lung): > 100 µM | TGI (HL-60(TB) leukemia): > 100 µM | TGI (MALME-3M melanoma): > 100 µM | TGI (MCF7 breast): > 100 µM | TGI (SK-OV-3 ovarian): > 100 µM | TGI (M14 melanoma): > 100 µM | TGI (U251 CNS): > 100 µM | TGI (A549 NSCLC): > 100 µM | TGI (HOP-62 NSCLC): > 100 µM | TGI (SNB-19 CNS): 35.5 µM | TGI (CAKI-1 renal): > 100 µM | TGI (HCC-2998 colon): > 100 µM | TGI (TK-10 renal): > 100 µM | TGI (OVCAR-5 ovarian): > 100 µM | TGI (LOX IMVI melanoma): > 100 µM | TGI (SW-620 colon): > 100 µM | TGI (UACC-257 melanoma): > 100 µM | TGI (NCI-H522 lung): > 100 µM | TGI (OVCAR-8 ovarian): > 100 µM | TGI (HOP-92 NSCLC): > 100 µM | TGI (UACC-62 melanoma): > 100 µM | TGI (NCI-H226 lung): > 100 µM | TGI (MDA-MB-435): > 100 µM | TGI (A498 renal): > 100 µM | TGI (MDA-N): > 100 µM | TGI (MDA-MB-231 breast): > 100 µM
